Source: patent publication US11419335B2, “N-arylated analogues and uses thereof” (University of Florida Research Foundation, Incorporated, priority 2016, dated 2022)
Read-outs that look alike come from different tables or passages of the source. Marks after values point to notes of the source that are not given here. One block for each compound: values may come before it.

Experiments:
[1] = tested on: human red blood cells (hRBC); assay: Hemolysis of red blood cells; assay type: cell-based
In short: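 hRBCs (2% suspension) exposed to compounds at 0.2–200 μM (ten-point dose-response) for 1 h at 37 °C; after centrifugation, haemoglobin release read as supernatant OD at 405 nm. DMSO set as 0% and Triton X as 100% haemolysis; HC50 from dose-response curves, three independent experiments.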

[2] = tested on: Acinetobacter baumannii (ATCC 1794); assay: MIC broth microdilution, A. baumannii 1794; assay type: cell-based; details: for MIC A. baumannii 1794: in µM
In short: (§1)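 Growth inhibition is scored visually with OD600 support after 16 to 18 hours at 37° C, the MIC taken as the lowest compound concentration without bacterial growth. Compounds are tested as two-fold dilutions from 0.10 to 100 μM in Luria Broth against ~10^5 log-phase cells per well.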

[3] = tested on: Escherichia coli clinical isolate (UAEC-1); assay: MIC broth microdilution, UAEC-1; assay type: cell-based; details: for MIC UAEC-1: Table 4
Description: (§2) The minimum inhibitory concentration (MIC) for each tested compound was determined by the broth microdilution method as recommended by the Clinical and Laboratory Standards Institute (CLSI). In a 96-well plate, eleven two-fold serial dilutions of each compound were made in a final volume of 100 μL Luria Broth. Each well was inoculated with ˜10^5 bacterial cells at the initial time of incubation, prepared from a fresh log phase culture (OD600 of 0.5 to 1.0 depending on bacterial strain). The MIC was defined as the lowest concentration of compound that prevented bacterial growth after incubating 16 to 18 hours at 37° C. (MIC values were supported by spectrophotometric readings at OD600). DMSO served as our vehicle and negative control in each microdilution MIC assay. DMSO was serially diluted with a top concentration of 1% v/v.
as §2, with “for each compound was” for “for each tested compound was”, “Standards Institute (CLSI).^6 In a” for “Standards Institute (CLSI). In a”, “concentration of test compound that” for “concentration of compound that”, “37° C. The concentration range tested for each compound during this study was 0.10 to 100 μM. DMSO served” for “37° C. (MIC values were supported by spectrophotometric readings at OD600). DMSO served”, “1% v/v. All MIC values were obtained from a minimum of three independent experiments.” for “1% v/v.”

[4] = tested on: methicillin-resistant Staphylococcus aureus MRSA-2 (clinical isolate); assay: MIC broth microdilution, MRSA-2; assay type: cell-based; details: for MIC: read-out: MIC MRSA-2
In short: as §1

[5] = tested on: vancomycin-resistant Enterococcus faecium (VRE strain ATCC 700221); assay: MIC broth microdilution, VRE 700221; assay type: cell-based
In short: as §1

MRSA BAA-1707 = assay: MIC broth microdilution, MRSA BAA-1707; assay type: cell-based, Staphylococcus aureus; details: for MIC MRSA 1707: Table 4
In short: (§3)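 Log-phase bacteria (~10^5 cells per well) were added to eleven two-fold compound dilutions in Luria Broth, covering 0.10 to 100 μM. Growth inhibition was scored per CLSI broth microdilution, supported by OD600 reads. DMSO, serially diluted from 1% v/v, served as negative control.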

[6] = tested on: methicillin-resistant Staphylococcus epidermidis (MRSE strain ATCC 35984); assay: MIC broth microdilution, MRSE 35984; assay type: cell-based
In short: as §1

[7] = tested on: Pseudomonas aeruginosa (PAO1); assay: MIC broth microdilution, PAO1; assay type: cell-based
In short: as §1

[8] = tested on: SA-156 (clinical isolate); assay: MIC broth microdilution, SA-156; assay type: cell-based, Staphylococcus aureus
Description: as §2, with “The MIC was defined as the lowest concentration of compound that prevented bacterial growth after incubating 16 to 18 hours at 37° C.” left out
(§4) Each well was inoculated with ˜10^5 bacterial cells at the initial time of incubation, prepared from a fresh log phase culture (OD600 of 0.5 to 1.0 depending on bacterial strain). […] The concentration range tested for each compound during this study was 0.10 to 100 μM. DMSO served as our vehicle and negative control in each microdilution MIC assay. DMSO was serially diluted with a top concentration of 1% v/v. All MIC values were obtained from a minimum of three independent experiments.

[9] = tested on: methicillin-sensitive Staphylococcus aureus ATCC 29213; assay: MIC broth microdilution, S. aureus 29213; assay type: cell-based
In short: as §3

[10] = tested on: SA-138 (clinical isolate); assay: MIC broth microdilution, SA-138; assay type: cell-based, Staphylococcus aureus
Description: as §2, with “The MIC was defined as the lowest concentration of compound that prevented bacterial growth after incubating 16 to 18 hours at 37° C.” left out
as §4

[11] = tested on: MRSA-1 (clinical isolate); assay: MIC broth microdilution, MRSA-1; assay type: cell-based, Staphylococcus aureus
Description: as §2, with “The MIC was defined as the lowest concentration of compound that prevented bacterial growth after incubating 16 to 18 hours at 37° C.” left out
as §4

[12] = tested on: SA-147 (clinical isolate); assay: MIC broth microdilution, SA-147; assay type: cell-based, Staphylococcus aureus
Description: as §2, with “The MIC was defined as the lowest concentration of compound that prevented bacterial growth after incubating 16 to 18 hours at 37° C.” left out
as §4

MRSA BAA-44 = assay: MIC broth microdilution, MRSA BAA-44; assay type: cell-based, Staphylococcus aureus
Description: as §2, with “The MIC was defined as the lowest concentration of compound that prevented bacterial growth after incubating 16 to 18 hours at 37° C.” left out
as §4

[13] = tested on: SA-129 (clinical isolate); assay: MIC broth microdilution, SA-129; assay type: cell-based, Staphylococcus aureus
Description: as §2, with “The MIC was defined as the lowest concentration of compound that prevented bacterial growth after incubating 16 to 18 hours at 37° C.” left out
as §4

MIC A. bau. 1794 ([2]; Table 4): 6.25 µM
MIC UAEC-1 [3]: 6.25 µM
MIC MRSA-2 ([4]; Table 4): 1.56 µM
MIC VRE 700221 ([5]; Table 4): 3.13 µM
MIC MRSA 1707 (MRSA BAA-1707): 1.56 µM
MIC MRSE 35984 ([6]; Table 4): 1.56 µM
MIC PAO1 ([7]; Table 4): >100 µM
Compound: CCCCCCCCCCCCCCCC[N+](C)(C)Cc1ccccc1.[Cl-] [BAC-16, reference compound]
RBC HC50 [1]: 21.8 µM

MIC SA-156 ([8]; Table 1B): 2.35^a μM
MIC SA-156 ([8]; Table 3): 2.35^a μM
MIC against multidrug-resistant A. baumannii [2]: 6.25 µM
MIC ([2]; Table 1, read-out: MIC A. baumannii 1794): 6.25 µM
MIC A. baumannii 1794 ([2]; Table 1A): 6.25
MIC A. bau. 1794 ([2]; Table 4): 6.25 µM
MIC ([3]; Table 1): 12.5 µM
MIC UAEC-1 [3]: 12.5 µM
MIC ([4]; Table 1): 3.13 µM
MIC MRSA-2 ([4]; Table 1A): 3.13 µM
MIC MRSA-2 ([4]; Table 1B): 2.35^a μM
MRSA-2 MIC ([4]; Table 2A): 2.35^a μM
MIC ([4]; Table 3): 3.13 µM
MIC MRSA-2 ([4]; Table 4): 3.13 µM
MIC S. aureus 29213 ([9]; Table 1B): 4.69^a μM
MIC S. aureus 29213 ([9]; Table 3): 4.69^a μM
MIC SA-138 ([10]; Table 1B): 2.35^a μM
MIC SA-138 ([10]; Table 3): 2.35^a μM
MIC ([11]; Table 1B): 3.13 µM
MIC MRSA-1 ([11]; Table 3): 4.69^a μM
MIC VRE 700221 ([5]; Table 1): 2.35^a μM
MIC E. faecium VRE 700221 ([5]; Table 1A): 2.35^a
VRE 700221 MIC ([5]; Table 2): 2.35^a μM
MIC VRE 700221 ([5]; Table 4): 2.35a micromolar
MIC ([12]; Table 1B): 3.13 µM
MIC ([12]; Table 3): 3.13 µM
MIC MRSA BAA-44 (MRSA BAA-44; Table 1B): 2.35^a μM
MIC MRSA BAA-44 (MRSA BAA-44; Table 3): 2.35^a μM
MIC MRSE 35984 ([6]; Table 1): 2.35^a μM
MIC S. epidermidis MRSE 35984 ([6]; Table 1A): 2.35^a
MRSE 35984 MIC ([6]; Table 2): 2.35^a μM
MRSE 35984 MIC ([6]; Table 2A): 2.35^a μM
MIC MRSE 35984 ([6]; Table 4): 2.35a micromolar
MIC against P. aeruginosa [7]: 9.38 µM
MIC PAO1 ([7]; Table 1): 9.38^a μM
MIC PAO1 ([7]; Table 1A): 9.38^a
MIC PAO1 ([7]; Table 4): 9.38a micromolar
MIC SA-129 ([13]; Table 1B): 2.35^a μM
MIC SA-129 ([13]; Table 3): 2.35^a μM
Compound: CCCCCCCCCCCC[N+](C)(C)CC[N+](C)(C)CC[N+](C)(C)CCCCCCCCCCCC [QAC-10, reference compound]
HC50 [1]: 7.92 µM
hemolytic activity [1]: potent hemolytic activities

Compound: CCCCCCCCCCCCCCCCn1cc[n+](C)c1C.[I-] [Compound 8]
MIC ([8]; Table 1B): 1.56 µM
MIC ([8]; Table 3): 1.56 µM
HC50 ([1]; Table 1A): 13 µM
RBC HC50 ([1]; Table 4, concentration required to lyse 50% of red blood cells): 13.0 µM
MIC A. bau. 1794 [2]: 12.5 µM
MIC A. baumannii 1794 [2]: 12.5
MIC UAEC-1 [3]: 12.5 µM
MRSA-2 MIC [4]: 1.17^a μM
MIC ([9]; Table 1B): 1.56 µM
MIC ([9]; Table 3): 1.56 µM
MIC SA-138 ([10]; Table 1B): 2.35^a μM
MIC SA-138 ([10]; Table 3): 2.35^a μM
MIC ([11]; Table 1B): 1.56 µM
MIC ([11]; Table 3): 1.56 µM
MIC E. faecium VRE 700221 [5]: 2.35^a
MIC VRE 700221 [5]: 2.35a micromolar
VRE MIC [5]: 2.35^a μM
MIC SA-147 ([12]; Table 1B): 1.17^a μM
MIC SA-147 ([12]; Table 3): 1.17^a μM
MIC (MRSA BAA-1707; Table 1B, read-out: MIC MRSA BAA-1707): 0.39 µM
MIC (MRSA BAA-1707; Table 2A, read-out: MRSA BAA-1707 MIC): 0.39 µM
MIC (MRSA BAA-1707; Table 3, read-out: MIC MRSA BAA-1707): 0.39 µM
MIC MRSA 1707 (MRSA BAA-1707): 0.39 µM
MIC (MRSA BAA-44; Table 1B): 1.56 µM
MIC (MRSA BAA-44; Table 3): 1.56 µM
MIC MRSE 35984 [6]: 1.17a micromolar
MIC S. epidermidis MRSE 35984 [6]: 1.17^a
MRSE 35984 MIC [6]: 1.17^a μM
MIC ([13]; Table 1B): 1.56 µM
MIC ([13]; Table 3): 1.56 µM
